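Test compounds were applied to cells in 96-well plates for 48 hours at 5 doses. Abbreviation: GI50, concentration required for 50% inhibition of growth.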 Active and inactive are the calls of the source. No stated cut-off is given here; in the data, active = GI50 up to about 1.1 µM and inactive = higher.
Experiments:
Assay in all cases: NCI tumour cell line growth inhibition, 48 h
UACC-257 = system: UACC-257
A549 = system: A549
DLD-1 = system: DLD-1
M19-MEL = system: M19-MEL
SNB-78 = system: SNB-78
TK-10 = system: TK-10
RXF 393 = system: RXF 393
COLO 205 = system: COLO 205
DMS-114 = system: DMS-114
SF-295 = system: SF-295
RPMI-8226 = system: RPMI-8226
DMS-273 = system: DMS-273
CCRF-CEM = system: CCRF-CEM
SW-620 = system: SW-620
SN12C = system: SN12C
SK-OV-3 = system: SK-OV-3
CAKI-1 = system: CAKI-1
UACC-62 = system: UACC-62
HOP-62 = system: HOP-62
MOLT-4 = system: MOLT-4
SK-MEL-5 = system: SK-MEL-5
A498 = system: A498
HCC 2998 = system: HCC 2998
XF498 = system: XF498
SNB-75 = system: SNB-75
K562 = system: K562
NCI-H226 = system: NCI-H226
HCT-116 = system: HCT-116
SNB-19 = system: SNB-19
SF-539 = system: SF-539
786-0 = system: 786-0
NCI-H522 = system: NCI-H522
EKVX = system: EKVX
SF-268 = system: SF-268
OVCAR-3 = system: OVCAR-3
M14 = system: M14
LXFL 529 = system: LXFL 529
UO-31 = system: UO-31
HL-60 = system: HL-60
KM12 = system: KM12
OVCAR-5 = system: OVCAR-5
SK-MEL-28 = system: SK-MEL-28
IGROV-1 = system: IGROV-1
HOP-92 = system: HOP-92
NCI-H460 = system: NCI-H460
ACHN = system: ACHN
SR = system: SR
HT-29 = system: HT-29
U-251 = system: U-251
OVCAR-8 = system: OVCAR-8
KM-20L2 = system: KM-20L2
Malme-3M = system: Malme-3M
NCI-H23 = system: NCI-H23
HOP-18 = system: HOP-18
SK-MEL-2 = system: SK-MEL-2
OVCAR-4 = system: OVCAR-4
LOX IMVI = system: LOX IMVI
NCI/ADR-RES = system: NCI/ADR-RES
HCT-15 = system: HCT-15
MCF7 = system: MCF7

Q: Which results are given for `CCOC(=O)C(CC/C=C\c1ccccc1)N1CCC[C@H]1C(=O)OC` (stereo partly specified)?
A: GI50 (UACC-257): > 100 µM (inactive); GI50 (A549): > 100 µM (inactive); GI50 (DLD-1): > 100 µM (inactive); GI50 (M19-MEL): > 100 µM (inactive); GI50 (SNB-78): > 100 µM (inactive); GI50 (TK-10): > 100 µM (inactive); GI50 (RXF 393): > 100 µM (inactive); GI50 (COLO 205): > 100 µM (inactive); GI50 (DMS-114): 59.6 µM (inactive); GI50 (SF-295): > 100 µM (inactive); GI50 (RPMI-8226): 29.7 µM (inactive); GI50 (DMS-273): > 100 µM (inactive); GI50 (CCRF-CEM): 94.8 µM (inactive); GI50 (SW-620): > 100 µM (inactive); GI50 (SN12C): > 100 µM (inactive); GI50 (SK-OV-3): > 100 µM (inactive); GI50 (CAKI-1): > 100 µM (inactive); GI50 (UACC-62): > 100 µM (inactive); GI50 (HOP-62): > 100 µM (inactive); GI50 (MOLT-4): 39.1 µM (inactive); GI50 (SK-MEL-5): > 100 µM (inactive); GI50 (A498): > 100 µM (inactive); GI50 (HCC 2998): > 100 µM (inactive); GI50 (XF498): > 100 µM (inactive); GI50 (SNB-75): > 100 µM (inactive); GI50 (K562): 49.4 µM (inactive); GI50 (NCI-H226): > 100 µM (inactive); GI50 (HCT-116): > 100 µM (inactive); GI50 (SNB-19): > 100 µM (inactive); GI50 (SF-539): > 100 µM (inactive); GI50 (786-0): > 100 µM (inactive); GI50 (NCI-H522): > 100 µM (inactive); GI50 (EKVX): > 100 µM (inactive); GI50 (SF-268): > 100 µM (inactive); GI50 (OVCAR-3): > 100 µM (inactive); GI50 (M14): > 100 µM (inactive); GI50 (LXFL 529): > 100 µM (inactive); GI50 (UO-31): > 100 µM (inactive); GI50 (HL-60): 35.8 µM (inactive); GI50 (KM12): > 100 µM (inactive); GI50 (OVCAR-5): > 100 µM (inactive); GI50 (SK-MEL-28): > 100 µM (inactive); GI50 (IGROV-1): > 100 µM (inactive); GI50 (HOP-92): > 100 µM (inactive); GI50 (NCI-H460): > 100 µM (inactive); GI50 (ACHN): > 100 µM (inactive); GI50 (SR): 40 µM (inactive); GI50 (HT-29): > 100 µM (inactive); GI50 (U-251): > 100 µM (inactive); GI50 (OVCAR-8): > 100 µM (inactive); GI50 (KM-20L2): > 100 µM (inactive); GI50 (Malme-3M): > 100 µM (inactive); GI50 (NCI-H23): > 100 µM (inactive); GI50 (HOP-18): > 100 µM (inactive); GI50 (SK-MEL-2): > 100 µM (inactive); GI50 (OVCAR-4): > 100 µM (inactive); GI50 (LOX IMVI): > 100 µM (inactive)

Q: Which results are given for `COc1cc(O)c(Cc2ccccc2O)c(O)c1C(=O)CCc1ccccc1` [UVARETIN]?
A: GI50 (UACC-257): 5.36 µM (inactive); GI50 (A549): 5.92 µM (inactive); GI50 (DLD-1): 7.33 µM (inactive); GI50 (NCI/ADR-RES): 5.66 µM (inactive); GI50 (M19-MEL): 6.07 µM (inactive); GI50 (SNB-78): 7.64 µM (inactive); GI50 (RXF 393): 6.07 µM (inactive); GI50 (COLO 205): 5.92 µM (inactive); GI50 (DMS-114): 4.09 µM (inactive); GI50 (SF-295): 5.9 µM (inactive); GI50 (RPMI-8226): 2.44 µM (inactive); GI50 (DMS-273): 4.39 µM (inactive); GI50 (CCRF-CEM): 6.21 µM (inactive); GI50 (SW-620): 7.23 µM (inactive); GI50 (SN12C): 4.82 µM (inactive); GI50 (SK-OV-3): 6.15 µM (inactive); GI50 (CAKI-1): 5.24 µM (inactive); GI50 (UACC-62): 4.4 µM (inactive); GI50 (HOP-62): 2.47 µM (inactive); GI50 (MOLT-4): 3.85 µM (inactive); GI50 (SK-MEL-5): 3.69 µM (inactive); GI50 (A498): 1.48 µM (inactive); GI50 (HCC 2998): 6.1 µM (inactive); GI50 (XF498): 3.21 µM (inactive); GI50 (SNB-75): 6.92 µM (inactive); GI50 (K562): 5.26 µM (inactive); GI50 (NCI-H226): 6.62 µM (inactive); GI50 (HCT-116): 4.31 µM (inactive); GI50 (SNB-19): 6.55 µM (inactive); GI50 (SF-539): 5.41 µM (inactive); GI50 (NCI-H522): 2.3 µM (inactive); GI50 (EKVX): 6.19 µM (inactive); GI50 (SF-268): 7.01 µM (inactive); GI50 (OVCAR-3): 4.58 µM (inactive); GI50 (UO-31): 6.21 µM (inactive); GI50 (HL-60): 4.43 µM (inactive); GI50 (KM12): 6.81 µM (inactive); GI50 (OVCAR-5): 4.6 µM (inactive); GI50 (SK-MEL-28): 7 µM (inactive); GI50 (IGROV-1): 6.97 µM (inactive); GI50 (HOP-92): 3.99 µM (inactive); GI50 (HCT-15): 5.71 µM; GI50 (NCI-H460): 4.49 µM (inactive); GI50 (HT-29): 11.9 µM (inactive); GI50 (MCF7): 5.81 µM (inactive); GI50 (U-251): 5.12 µM (inactive); GI50 (OVCAR-8): 6.41 µM (inactive); GI50 (KM-20L2): 7.35 µM (inactive); GI50 (Malme-3M): 4.89 µM (inactive); GI50 (NCI-H23): 4.17 µM (inactive); GI50 (HOP-18): 0.713 µM (active); GI50 (SK-MEL-2): 4.71 µM (inactive); GI50 (OVCAR-4): 6.55 µM (inactive); GI50 (LOX IMVI): 6.05 µM (inactive)
